Among the test systems are SF-268 CNS; NCI-H23 lung; NCI/ADR-RES ovarian; NCI-H460 lung; SR leukemia; HT29 colon; CCRF-CEM leukemia; SN12C renal; DU-145 prostate; HOP-92 NSCLC.
Holding throughout (assay): NCI tumour cell line growth inhibition, 48 h

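Test compounds were applied to cells in 96-well plates for 48 hours at 5 doses. GI50: concentration for 50% inhibition of growth. TGI: concentration producing complete growth inhibition.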

`COc1ccc(-c2cncn2-c2cc(OC)c(OC)c(OC)c2)cc1F`: the GI50 was 0.0548 µM with SF-268 CNS; 0.149 µM with NCI-H23 lung; 0.0108 µM with NCI/ADR-RES ovarian; below 0.01 µM in the test with NCI-H460 lung; below 0.01 µM in the test on SR leukemia; below 0.01 µM in the test with HT29 colon. In addition, the GI50 with CCRF-CEM leukemia is below 0.0296 µM; in the test on SN12C renal, 0.789 µM; in the test on DU-145 prostate, below 0.0342 µM; with HOP-92 NSCLC it was 6 µM. The TGI with SF-268 CNS is above 100 µM; in the test on NCI-H23 lung, above 100 µM; with NCI/ADR-RES ovarian, above 100 µM; with NCI-H460 lung, above 100 µM; in the test with HT29 colon, above 38.6 µM; with CCRF-CEM leukemia, above 100 µM. The TGI is above 100 µM in the test on SN12C renal, above 100 µM with DU-145 prostate and 51.9 µM in the test with HOP-92 NSCLC.
Consider `N#CC[C@H](C1CCCC1)n1cc(-c2ncnc3[nH]ccc23)cn1`, for which the GI50 with SF-268 CNS is 16.8 µM; in the test with NCI-H23 lung, 19.6 µM; in the test with NCI/ADR-RES ovarian, 19.4 µM; with NCI-H460 lung it was 14.4 µM; in the test on SR leukemia, 4.04 µM; with HT29 colon, 19.7 µM. Besides, the GI50 with CCRF-CEM leukemia was 29.1 µM; with SN12C renal, 22.1 µM; in the test with DU-145 prostate, 19.3 µM; with HOP-92 NSCLC, 6.81 µM. Moreover, the TGI is above 77.9 µM with SF-268 CNS; 75.7 µM in the test on NCI-H23 lung; above 100 µM in the test on NCI/ADR-RES ovarian; above 100 µM with NCI-H460 lung; 41.6 µM with SR leukemia; 41.5 µM in the test on HT29 colon. Further, the TGI in the test on CCRF-CEM leukemia, with SN12C renal, with DU-145 prostate and in the test on HOP-92 NSCLC was above 100 µM throughout.
Consider `CCOC(=O)C(Cc1ccc(OC)cc1)C(=O)OCC`, for which the GI50 with SF-268 CNS was 3.73 µM; in the test with NCI-H23 lung, 3.63 µM; in the test with NCI/ADR-RES ovarian, 3.77 µM; with NCI-H460 lung it was 4.12 µM; in the test on SR leukemia it was 1.88 µM; in the test with HT29 colon, 4.15 µM. In addition, the GI50 in the test with CCRF-CEM leukemia was 3.18 µM; in the test with SN12C renal it was 5.77 µM; in the test with DU-145 prostate it was 2.65 µM; with HOP-92 NSCLC, 6.93 µM. In addition, the TGI turned out to be 15.2 µM in the test on SF-268 CNS; 14.9 µM with NCI-H23 lung; 19 µM in the test with NCI/ADR-RES ovarian; 15.1 µM in the test on NCI-H460 lung; 5.38 µM with SR leukemia; 25.4 µM in the test on HT29 colon. Moreover, the TGI in the test on CCRF-CEM leukemia was determined as 28.2 µM; in the test with SN12C renal, 21.7 µM; in the test with DU-145 prostate it was 7.71 µM; with HOP-92 NSCLC it was 30.4 µM.
